# Experimental data reported in patent publication US8779006B2, “Compositions and methods for treatment and prevention of osteoarthritis” (Nucitec S.A. de C.V., priority 2007, dated 2014).
# Columns and labels:
# [1] = system: patients with OA of the knee; test: Example 2 randomized double-blind active-controlled study: WOMAC index; format: in vivo, human
# Procedure: (§1) This was a 16-week, randomized, double-blind, active-controlled, parallel-group study. The study received Ethics Committee approval, was performed in accordance with the ICH Harmonized Guidelines for Good clinical Practice (GPC) and the Declaration of Helsinki. All patients provided written, informed consent before the start of the study.
# (§2) 117 patients with OA of the knee (according to the American College of Rheumatology criteria) were included in the study. Patients were enrolled by public advertising and were studied at the San Jose Hospital in Queretaro, México. Entry criteria included: willingness to participate in the study, male and female patients aged at least 40 years of age with symptomatic evidence of OA in the knee for at least 1 year, radiographic evidence of Kellgren and Lawrence grade II to IV OA of the knee, and no intra-articular injection of corticosteroids within the last 3 months. Patients were excluded if they had: any history of adverse reaction to the study drugs, current pregnancy status, uncontrolled hypertension, active infection, undergone surgery/arthroscopy within three months, diagnosis of radiographic OA of Kellgren and Lawrence grade I.
# (§3) Participants were assessed in-person during 6 visits conducted at monthly intervals. After giving written informed consent (visit #1), patients were screened and selected according to the predetermined criteria. Visit #2 was the baseline assessment. During this visit selected patients were assigned a unique patient identification number and randomized to receive 1 intra-articular monthly injection (10 mL) of Kondrium™, Kondrium™-F or methylprednisolone (80 mg) 1 month apart during the next 3 months (visits 3, 4 and 5). Visit #3, #4 and #5 served as a midpoint assessment and visit #6 was the final assessment corresponding to the end of the intervention period of the study. Kondrium™ is an aqueous formulation that contains 6.75% (w/v) sodium bicarbonate and 0.75% (w/v) calcium gluconate. Kondrium™-F is an aqueous formulation that contains 6.75% (w/v) sodium bicarbonate and 1.5% (w/v) calcium gluconate.
# (§4) The primary efficacy variable was the change from the baseline to final assessment in the Western Ontario and McMastern University OA index (WOMAC subscale score for pain), and Lequesne's functional index.
# (§5) Data analysis was performed using SPSS for Windows version 10.0. Baseline demographic variables and compliance were analyzed by means of the χ^2 test. A univariate analysis of variance (ANOVA) was used to determine whether the three treatment groups differed in mean values of change from a baseline in WOMAC and Lequesne's functional index. Treatment effect is shown as the main effect controlled by the baseline values. Pairwise comparisons between treatments were done with the LSD test. All statistical tests were performed at the 0.05 level of significance.
# [2] = system: patients with OA of the knee; test: Example 2 randomized double-blind active-controlled study: Lequesne's functional index; format: in vivo, human
# Procedure: as §1, §2, §3, §4, §5
# [3] = after 4 months of treatment, monthly intra-articular injection
structure (smiles),measurement,setting,value
"C[C@H]1C[C@@H]2[C@H]([C@@H](O)C[C@@]3(C)[C@H]2CC[C@]3(O)C(=O)CO)[C@@]2(C)C=CC(=O)C=C12 [Methylprednisolone, methylprednisolone]","WOMAC Pain, change, mean",[1]; [3],−2.76
same,"WOMAC Pain, final, mean",[1]; [3],2.57
same,"WOMAC Physical functioning, change, mean",[1]; [3],−7.34
same,"WOMAC Physical functioning, final, mean",[1]; [3],8.19
same,"WOMAC Stiffness, change, mean",[1]; [3],−2.42
same,"WOMAC Stiffness, final, mean",[1]; [3],2.77
same,"WOMAC Pain, baseline, mean",[1]; before treatment,4.72
same,"WOMAC Physical functioning, baseline, mean",[1]; before treatment,14.47
same,"WOMAC Stiffness, baseline, mean",[1]; before treatment,4.79
same,"Lequesne functional index Maximum Walking Distance, change, mean",[2]; [3],−0.75
same,"Lequesne functional index Maximum Walking Distance, final, mean",[2]; [3],2.90
same,"Lequesne functional index Normal activities, change, mean",[2]; [3],−2.80
same,"Lequesne functional index Normal activities, final, mean",[2]; [3],4.62
same,"Lequesne functional index Pain, change, mean",[2]; [3],−1.96
same,"Lequesne functional index Pain, final, mean",[2]; [3],2.86
same,"Lequesne functional index Maximum Walking Distance, baseline, mean",[2]; before treatment,3.24
same,"Lequesne functional index Normal activities, baseline, mean",[2]; before treatment,6.93
same,"Lequesne functional index Pain, baseline, mean",[2]; before treatment,4.34
same,mean change in the Lequesne's functional index,[2]; end of study vs baseline,−5.2
